The text below walks through data of ChEMBL document CHEMBL1131648, “Derivatization of soyasapogenol A and their hepatoprotective activities” (1998).

The first assay concerns HepG2. Nature of the assay: Hepatoprotective activity against aflatoxin B1 (10e-5 M) induced Hep G2 cells at a dose of 20 ug/ml. The format is functional, Homo sapiens.
In turn, `CC1(C)[C@@H](O[C@H]2O[C@H](C(=O)O)[C@@H](O)[C@H](O)[C@H]2O[C@@H]2O[C@H](C(=O)O)[C@@H](O)[C@H](O)[C@H]2O)CC[C@]2(C)[C@H]3C(=O)C=C4[C@@H]5C[C@@](C)(C(=O)O)CC[C@]5(C)CC[C@@]4(C)[C@]3(C)CC[C@@H]12` [GLYCYRRHIZIN] yielded a Protection of 15%.

For another assay, the system named is HepG2. Nature of the assay: Hepatoprotective activity against aflatoxin B1 (10e-5 M) induced Hep G2 cells at a dose of 10 ug/ml. The format is functional, Homo sapiens.
`CC1(C)C[C@@H](O)[C@]2(C)CC[C@]3(C)C(=CCC4[C@@]5(C)CC[C@H](O)[C@](C)(CO)C5CC[C@]43C)[C@@H]2C1` (stereo partly drawn) yielded a Protection of 14%. Still for that read-out and setting: for `CO[C@@H]1[C@H](OC)C(C)(C)C[C@H]2C3=CCC4[C@@]5(C)CC[C@H](O)[C@](C)(CO)C5CC[C@@]4(C)[C@]3(C)CC[C@@]12C` (stereo partly drawn) the value was 0%. Consider `CC(=O)O[C@@H]1[C@H](OC(C)=O)C(C)(C)C[C@H]2C3=CCC4[C@@]5(C)CC[C@H](O)[C@](C)(CO)C5CC[C@@]4(C)[C@]3(C)CC[C@@]12C` (stereo partly drawn), for which the Protection was found to be 0%. In the case of `CC(=O)OC[C@]1(C)C2CC[C@]3(C)C(CC=C4[C@@H]5CC(C)(C)[C@@H](O)[C@@H](O)[C@]5(C)CC[C@]43C)[C@@]2(C)CC[C@@H]1OC(C)=O` (stereo partly drawn), the Protection was found to be 0%. Compound `CC1(C)C[C@H]2C3=CCC4[C@@]5(C)CC[C@H](O)[C@](C)(CO)C5CC[C@@]4(C)[C@]3(C)CC[C@@]2(C)C(=O)[C@@H]1O` (stereo partly drawn) gave a Protection of 107%. Still for that read-out and setting: in the case of `CO[C@H]1[C@@H](O)[C@]2(C)CC[C@]3(C)C(=CCC4[C@@]5(C)CC[C@H](O)[C@](C)(CO)C5CC[C@]43C)[C@@H]2CC1(C)C` (stereo partly drawn) it was 8%; in that of `CO[C@@H]1[C@H](O)C(C)(C)C[C@H]2C3=CCC4[C@@]5(C)CC[C@H](O)[C@](C)(CO)C5CC[C@@]4(C)[C@]3(C)CC[C@@]12C` (stereo partly drawn), 20%; in that of `COC[C@]1(C)C2CC[C@]3(C)C(CC=C4[C@@H]5CC(C)(C)[C@@H](O)[C@@H](O)[C@]5(C)CC[C@]43C)[C@@]2(C)CC[C@@H]1OC` (stereo partly drawn), 7%. The same measure, in the same setting: for `CC(=O)O[C@H]1[C@@H](O)[C@]2(C)CC[C@]3(C)C(=CCC4[C@@]5(C)CC[C@H](O)[C@](C)(CO)C5CC[C@]43C)[C@@H]2CC1(C)C` (stereo partly drawn) the value was 25%; for `CC1(C)C[C@H]2C3=CCC4[C@@]5(C)CC[C@H](O)[C@](C)(CO)C5CC[C@@]4(C)[C@]3(C)CC[C@@]2(C)C[C@@H]1O` (stereo partly drawn), 25%; for `CC1(C)C[C@H]2C3=CC[C@@H]4[C@@]5(C)CC[C@H](O)[C@](C)(CO)[C@@H]5CC[C@@]4(C)[C@]3(C)CC[C@@]2(C)[C@@H](O)[C@H]1O`, 8%. On the same count and under the same terms, in the case of `CC1(C)C[C@H]2C3=CC[C@@H]4[C@@]5(C)CC[C@H](O)[C@](C)(CO)[C@@H]5CC[C@@]4(C)[C@]3(C)CC[C@@]2(C)[C@@H](O)[C@@H]1O` it was 0%.

`CC1(C)C[C@H]2C3=CC[C@@H]4[C@@]5(C)CC[C@H](O)[C@](C)(CO)[C@@H]5CC[C@@]4(C)[C@]3(C)CC[C@@]2(C)[C@H](O)[C@H]1O`: the Protection was determined as 0%. As to `CC1(C)C[C@H]2C3=CCC4[C@@]5(C)CC[C@H](O)[C@](C)(CO)C5CC[C@@]4(C)[C@]3(C)CC[C@@]2(C)CC1=O` (stereo partly drawn), the Protection turned out to be 37%. Same read-out and setting: in the case of `CC1(C)C[C@H]2C3=CCC4[C@@]5(C)CC[C@H](O)[C@](C)(CO)C5CC[C@@]4(C)[C@]3(C)CC[C@@]2(C)C(=O)C1=O` (stereo partly drawn) it was 131%. On the same count and under the same terms, in the case of `CC1(C)C[C@H]2C3=CCC4[C@@]5(C)CC[C@H](O)[C@](C)(CO)C5CC[C@@]4(C)[C@]3(C)CC[C@@]2(C)C[C@H]1O` (stereo partly drawn) it was 0%.

On to `CC1(C)C[C@H]2C3=CC[C@@H]4[C@@]5(C)CC[C@H](O)[C@](C)(CO)[C@@H]5CC[C@@]4(C)[C@]3(C)CC[C@@]2(C)[C@H](O)[C@@H]1O` [SOYASAPOGENOL A], for which the Protection is recorded as 0%.
